Assays:
ducksalad = experiment: Test C flooded paddy test; assay type: in vivo, Heteranthera limosa; conditions: for Plant response rating, Ducksalad: 500 g ai/ha, visual rating after 12 to 14 days
morningglory = experiment: Test A pre-/postemergence herbicide test; assay type: in vivo, Ipomoea spp.
How it was run: (§1)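 Plants are held in greenhouse about ten days after treatment, then compared with untreated controls and scored 0 (no effect) to 100 (complete control). Preemergence dosing is a directed soil spray on sown sandy loam; postemergence dosing is spray to runoff at 2–10 cm height.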

[1] = system: smallflower umbrella sedge; experiment: Test C flooded paddy test; assay type: in vivo, Cyperus difformis; conditions: for Plant response rating, Sedge, Umbrella: 500 g ai/ha, visual rating after 12 to 14 days
velvetleaf = experiment: Test A pre-/postemergence herbicide test; assay type: in vivo, Abutilon theophrasti
How it was run: as §1

[2] = 62 g ai/ha, scale 0 to 100 (0 no effect, 100 complete control)
[3] = 125 g ai/ha, scale 0 to 100 (0 no effect, 100 complete control)
[4] = 250 g ai/ha, scale of 0 to 100, 0 is no effect, 100 is complete control
[5] = scale 0 to 100 (0 no effect, 100 complete control)
[6] = Postemergence, 500 g ai/ha, 0 to 100 scale, 0 no effect, 100 complete control
[7] = Postemergence, 2000 g ai/ha, 0 to 100 scale, 0 no effect, 100 complete control
[8] = Preemergence, 2000 g ai/ha, visual rating, 0 to 100 scale (0 no effect, 100 complete control)
[9] = preemergence, 500 g ai/ha, visual injury, 0 to 100 scale (0 no effect, 100 complete control)

Structure (SMILES): CCn1nc(C(C)(C)C)cc1C(=O)Nc1cccc(OCCCF)c1 [Compound 138]
- Ducksalad plant response rating (ducksalad; [2]): 0
- Ducksalad plant response rating (ducksalad; [3]): 20
- Ducksalad plant response rating (ducksalad; [4]): 55
- Plant response rating, Ducksalad (ducksalad; [5]): 70
- Morningglory plant response rating (morningglory; [6]): 15
- Plant response rating, Morningglory (morningglory; [7]): 40
- Morningglory plant response rating (morningglory; Preemergence, 500 g ai/ha, visual rating, 0 to 100 scale (0 no effect, 100 complete control)): 15
- Morningglory plant response rating (morningglory; [8]): 45
- Sedge, Umbrella plant response rating [1, 2]: 0
- Sedge, Umbrella plant response rating [1, 3]: 40
- Sedge, Umbrella plant response rating [1, 4]: 75
- Plant response rating, Sedge, Umbrella [1, 5]: 95
- Velvetleaf plant response rating (velvetleaf; [6]): 20
- Plant response rating, Velvetleaf (velvetleaf; [7]): 60
- Velvetleaf plant response rating (velvetleaf; [8]): 50
- Velvetleaf plant response rating (velvetleaf; [9]): 20

Structure (SMILES): CCc1nc(C(C)(C)C)sc1C(=O)Nc1cccc(C(=O)NCCF)c1 [Compound 209]
- Ducksalad plant response rating (ducksalad; [2]): 65
- Ducksalad plant response rating (ducksalad; [3]): 65
- Ducksalad plant response rating (ducksalad; [4]): 65
- Plant response rating, Ducksalad (ducksalad; [5]): 80
- Morningglory plant response rating (morningglory; [6]): 0
- Plant response rating, Morningglory (morningglory; [7]): 15
- Morningglory plant response rating (morningglory; [8]): 40
- Morningglory plant response rating (morningglory; [9]): 20
- Sedge, Umbrella plant response rating [1, 2]: 55
- Sedge, Umbrella plant response rating [1, 3]: 55
- Sedge, Umbrella plant response rating [1, 4]: 65
- Plant response rating, Sedge, Umbrella [1, 5]: 80
- Velvetleaf plant response rating (velvetleaf; [6]): 10
- Plant response rating, Velvetleaf (velvetleaf; [7]): 20
- Velvetleaf plant response rating (velvetleaf; [8]): 75
- Velvetleaf plant response rating (velvetleaf; [9]): 10

Structure (SMILES): CCc1nc(C(C)(C)C)sc1C(=O)Nc1cccc(C(=O)NC(C)(C)C)n1 [Compound 216]
- Ducksalad plant response rating (ducksalad; [2]): 0
- Ducksalad plant response rating (ducksalad; [3]): 20
- Ducksalad plant response rating (ducksalad; [4]): 30
- Plant response rating, Ducksalad (ducksalad; [5]): 40
- Morningglory plant response rating (morningglory; [6]): 20
- Plant response rating, Morningglory (morningglory; [7]): 20
- Morningglory plant response rating (morningglory; [8]): 15
- Morningglory plant response rating (morningglory; [9]): 0
- Sedge, Umbrella plant response rating [1, 2]: 20
- Sedge, Umbrella plant response rating [1, 3]: 30
- Sedge, Umbrella plant response rating [1, 4]: 30
- Plant response rating, Sedge, Umbrella [1, 5]: 50
- Velvetleaf plant response rating (velvetleaf; [6]): 25
- Plant response rating, Velvetleaf (velvetleaf; [7]): 35
- Velvetleaf plant response rating (velvetleaf; [8]): 30
- Velvetleaf plant response rating (velvetleaf; [9]): 10

Structure (SMILES): CCNC(=O)c1ccc(F)c(NC(=O)c2cc(C(C)(C)C)nn2CC)n1 [Compound 278]
- Ducksalad plant response rating (ducksalad; 62 g ai/ha, scale 0 to 100): 0
- Ducksalad plant response rating (ducksalad; [3]): 0
- Ducksalad plant response rating (ducksalad; [4]): 0
- Plant response rating, Ducksalad (ducksalad; [5]): 20
- Morningglory plant response rating (morningglory; [6]): 10
- Plant response rating, Morningglory (morningglory; [7]): 5
- Morningglory plant response rating (morningglory; [8]): 25
- Morningglory plant response rating (morningglory; [9]): 10
- Sedge, Umbrella plant response rating ([1]; 62 g ai/ha, scale 0 to 100): 0
- Sedge, Umbrella plant response rating [1, 3]: 25
- Sedge, Umbrella plant response rating [1, 4]: 65
- Plant response rating, Sedge, Umbrella [1, 5]: 75
- Velvetleaf plant response rating (velvetleaf; [6]): 20
- Plant response rating, Velvetleaf (velvetleaf; [7]): 25
- Velvetleaf plant response rating (velvetleaf; [8]): 35
- Velvetleaf plant response rating (velvetleaf; [9]): 20

Structure (SMILES): CCn1nc(C(C)(C)C)cc1C(=O)Nc1nc(C(=O)N2CC=CC2)ccc1F [Compound 281]
- Ducksalad plant response rating (ducksalad; 62 g ai/ha, scale 0 to 100): 0
- Ducksalad plant response rating (ducksalad; [3]): 0
- Ducksalad plant response rating (ducksalad; [4]): 70
- Plant response rating, Ducksalad (ducksalad; [5]): 85
- Morningglory plant response rating (morningglory; [6]): 10
- Plant response rating, Morningglory (morningglory; [7]): 15
- Morningglory plant response rating (morningglory; [8]): 25
- Morningglory plant response rating (morningglory; [9]): 5
- Sedge, Umbrella plant response rating ([1]; 62 g ai/ha, scale 0 to 100): 15
- Sedge, Umbrella plant response rating [1, 3]: 20
- Sedge, Umbrella plant response rating [1, 4]: 40
- Plant response rating, Sedge, Umbrella [1, 5]: 90
- Velvetleaf plant response rating (velvetleaf; [6]): 35
- Plant response rating, Velvetleaf (velvetleaf; [7]): 40
- Velvetleaf plant response rating (velvetleaf; [8]): 35
- Velvetleaf plant response rating (velvetleaf; [9]): 10

Structure (SMILES): C#CCNC(=O)c1cc(NC(=O)c2cc(C(C)(C)C)nn2CC)ccn1 [Compound 283]
- Ducksalad plant response rating (ducksalad; 62 g ai/ha, scale 0 to 100): 0
- Ducksalad plant response rating (ducksalad; [3]): 0
- Ducksalad plant response rating (ducksalad; [4]): 0
- Plant response rating, Ducksalad (ducksalad; [5]): 0
- Morningglory plant response rating (morningglory; [6]): 0
- Plant response rating, Morningglory (morningglory; [7]): 0
- Morningglory plant response rating (morningglory; [8]): 10
- Morningglory plant response rating (morningglory; [9]): 0
- Sedge, Umbrella plant response rating ([1]; 62 g ai/ha, scale 0 to 100): 0
- Sedge, Umbrella plant response rating [1, 3]: 0
- Sedge, Umbrella plant response rating [1, 4]: 0
- Plant response rating, Sedge, Umbrella [1, 5]: 0
- Velvetleaf plant response rating (velvetleaf; [6]): 15
- Plant response rating, Velvetleaf (velvetleaf; [7]): 35
- Velvetleaf plant response rating (velvetleaf; [8]): 15
- Velvetleaf plant response rating (velvetleaf; [9]): 0

Structure (SMILES): CCn1nc(C(C)(C)C)cc1C(=O)Nc1cncc(C(=O)N2CC=CC2)n1 [Compound 290]
- Ducksalad plant response rating (ducksalad; 62 g ai/ha, scale 0 to 100): 0
- Ducksalad plant response rating (ducksalad; [3]): 0
- Ducksalad plant response rating (ducksalad; [4]): 45
- Plant response rating, Ducksalad (ducksalad; [5]): 70
- Morningglory plant response rating (morningglory; [6]): 20
- Plant response rating, Morningglory (morningglory; [7]): 30
- Morningglory plant response rating (morningglory; [8]): 40
- Morningglory plant response rating (morningglory; [9]): 10
- Sedge, Umbrella plant response rating ([1]; 62 g ai/ha, scale 0 to 100): 0
- Sedge, Umbrella plant response rating [1, 3]: 25
- Sedge, Umbrella plant response rating [1, 4]: 65
- Plant response rating, Sedge, Umbrella [1, 5]: 70
- Velvetleaf plant response rating (velvetleaf; [6]): 20
- Plant response rating, Velvetleaf (velvetleaf; [7]): 30
- Velvetleaf plant response rating (velvetleaf; [8]): 30
- Velvetleaf plant response rating (velvetleaf; [9]): 15

Structure (SMILES): C#CCNC(=O)c1cccc(NC(=O)c2sc(C(C)(C)C)nc2CC)c1 [Compound 319]
- Ducksalad plant response rating (ducksalad; 62 g ai/ha, scale 0 to 100): 0
- Ducksalad plant response rating (ducksalad; [3]): 0
- Ducksalad plant response rating (ducksalad; [4]): 45
- Plant response rating, Ducksalad (ducksalad; [5]): 85
- Morningglory plant response rating (morningglory; [6]): 15
- Plant response rating, Morningglory (morningglory; [7]): 25
- Morningglory plant response rating (morningglory; [8]): 60
- Morningglory plant response rating (morningglory; [9]): 20
- Sedge, Umbrella plant response rating ([1]; 62 g ai/ha, scale 0 to 100): 20
- Sedge, Umbrella plant response rating [1, 3]: 35
- Sedge, Umbrella plant response rating [1, 4]: 70
- Plant response rating, Sedge, Umbrella [1, 5]: 80
- Velvetleaf plant response rating (velvetleaf; [6]): 20
- Plant response rating, Velvetleaf (velvetleaf; [7]): 30
- Velvetleaf plant response rating (velvetleaf; [8]): 45
- Velvetleaf plant response rating (velvetleaf; [9]): 35

Structure (SMILES): CCN(C(C)=O)C(=O)c1ccc(F)c(NC(=O)c2cc(C(C)(C)C)nn2CC)c1 [Compound 413]
- Ducksalad plant response rating (ducksalad; 62 g ai/ha, scale 0 to 100): 15
- Ducksalad plant response rating (ducksalad; [3]): 45
- Ducksalad plant response rating (ducksalad; [4]): 70
- Plant response rating, Ducksalad (ducksalad; [5]): 70
- Morningglory plant response rating (morningglory; [6]): 10
- Plant response rating, Morningglory (morningglory; [7]): 20
- Morningglory plant response rating (morningglory; [8]): 15
- Morningglory plant response rating (morningglory; [9]): 5
- Sedge, Umbrella plant response rating ([1]; 62 g ai/ha, scale 0 to 100): 10
- Sedge, Umbrella plant response rating [1, 3]: 50
- Sedge, Umbrella plant response rating [1, 4]: 75
- Plant response rating, Sedge, Umbrella [1, 5]: 75
- Velvetleaf plant response rating (velvetleaf; [6]): 40
- Plant response rating, Velvetleaf (velvetleaf; [7]): 55
- Velvetleaf plant response rating (velvetleaf; [8]): 35
- Velvetleaf plant response rating (velvetleaf; [9]): 35

— patent publication US20060069132A1, “Azolecarboxamide herbicides” (priority 2004, published 2006)
